Square brackets hold non-standard residues; d marks the D form. Ends that are not written are not given here. Peptide text beside a SMILES is read from it. NMeY = CN[C@@H](Cc1ccc(O)cc1)C(=O)O; hLeu = CC(C)CC[C@H](N)C(=O)O; NMeA = CN[C@@H](C)C(=O)O; Nle = CCCC[C@H](N)C(=O)O; Orn = NCCC[C@H](N)C(=O)O
Target: T1, PD-1/PD-L1 (Homo sapiens, UniProt Q15116)
T1 construct: this kit uses ectodomains of PD-1 and PD-L1 that are expressed with orthogonal fusion tags (Tag-1 and Tag-2); purchased CisBio (currently Perkin-Elmer, Bedford, MA)
Assay: In vitro time-resolved FRET PD-1/PD-L1 binding assay (CisBio kit)
Settings: CisBio PD-1/PD-L1 binding kit, TR FRET, 96-well; for EC50: serial dilutions in triplicate, NI = no inhibition at maximum concentration tested (* 5 μM, ** 50 μM), read-out: EC50 (Supplementary Table S1; inhibition of PD-1/PD-L1 binding by in vitro TR-FRET assay); for IC50: 4-fold serial dilutions in triplicate, freshly dissolved peptides, read-out: IC50, inhibition of PD-1/PD-L1 binding (TR FRET assay)
Description: Commercial PD-1/PD-L1 binding assay kit (CisBio, currently Perkin-Elmer, Bedford, MA) for time resolve fluorescent energy transfer (FRET) was used to assess peptides binding to PD-1. The assay for peptide screening was performed in a 96-well format (normal pressure), starting with 4-fold serial dilutions of each peptide in triplicate. No-peptide triplicate wells were used to assess fluorescent energy transfer in the absence of inhibition, and no-PD-1/PD-L1 triplicate wells were used to assess the background fluorescent energy transfer in the absence of PD-1/PD-L1 complexes. More detailed concentration dependences were obtained for selected peptides. Only freshly dissolved peptides were used in the assay. Various QSAR (quantitative structure activity relationship) hypotheses were tested by synthesizing batches of 10–12 peptides. In total, over one hundred candidates in ten iterations were screened for their ability to inhibit in vitro PD-1/PD-L1 binding using the commercial PD-1/PD-L1 binding assay kit (CisBio, currently Perkin-Elmer). Briefly, this kit uses ectodomains of PD-1 and PD-L1 that are expressed with orthogonal fusion tags (Tag-1 and Tag-2). It also includes two antibodies to selectively interact with these tags. The antibody against one tag is labeled with fluorescent moiety, which serves as a donor, while the other antibody is labeled with fluorescent moiety, which serves as an acceptor in fluorescent resonance energy transfer (FRET). When the complex is formed and probed with both anti-Tag-1 and anti-Tag-2 antibodies, donor and acceptor are sufficiently close, and FRET can be detected in a time-resolved (TR) manner. Inhibitors of PD-1/PD-L1 interactions prevent complex formation, leading to a decrease in TR FRET in a concentration-dependent manner, as shown in Figure 2 for four representative peptide inhibitors. Initial fourfold dilutions are exemplified by data for peptides B5.11 and B5.6 (panels A and B); examples of the more detailed follow-up concentration dependences are shown for peptides B2.4 and B2.22 (panels C and D). The potency of the inhibitors is then characterized by IC50, a concentration that inhibits TR FRET by 50%, allowing for a facile comparison of different inhibitors (Figure 2E).

Compound | EC50 | IC50
Ac-DWIVGAAWDYKY-NH2 [B5.13] | > 5 µM | –
CCCC[C@H](N)C(=O)N[C@H](C(=O)N[C@H](C(=O)N[C@H](C(=O)NCC(=O)N[C@@H](C)C(=O)N[C@@H](C)C(=O)N[C@@H](Cc1c[nH]c2ccccc12)C(=O)N[C@@H](CC(=O)O)C(=O)N[C@@H](Cc1ccc(O)cc1)C(=O)N[C@@H](CCCCN)C(=O)N[C@@H](Cc1ccc(O)cc1)C(=O)O)C(C)C)[C@@H](C)CC)C(C)C [B4.2] (H-[Nle]VIVGAAWDYKY-OH; N-terminus and C-terminus assumed) | > 5 µM | –
CC(=O)N[C@H](CC(=O)O)C(=O)NCC(=O)N[C@@H](C)C(=O)N[C@@H](C)C(=O)N[C@@H](Cc1c[nH]c2ccccc12)C(=O)N[C@@H](CC(=O)O)C(=O)N[C@@H](Cc1ccc(O)cc1)C(=O)N[C@@H](CCCCN)C(=O)N[C@@H](Cc1ccc(O)cc1)C(N)=O [B9.8] (Ac-[dD]GAAWDYKY-NH2) | > 50 µM | –
CCCC[C@H](NC(=O)[C@H](CC(=O)O)NC(C)=O)C(=O)N[C@H](C(=O)N[C@H](C(=O)NCC(=O)N[C@@H](C)C(=O)N[C@@H](C)C(=O)N[C@@H](Cc1c[nH]c2ccccc12)C(=O)N[C@@H](CC(=O)O)C(=O)N[C@@H](Cc1ccc(O)cc1)C(=O)N[C@@H](CCCCN)C(=O)N[C@@H](Cc1ccc(O)cc1)C(N)=O)C(C)C)[C@@H](C)CC [B5.7] (Ac-D[Nle]IVGAAWDYKY-NH2) | > 5 µM | –
CC(=O)N[C@@H](CC(=O)O)C(=O)N[C@H](C(=O)N[C@@H](CCC(C)C)C(=O)N[C@@H](CC(=O)O)C(=O)NCC(=O)N[C@@H](C)C(=O)N[C@@H](C)C(=O)N[C@@H](Cc1c[nH]c2ccccc12)C(=O)N[C@@H](CC(=O)O)C(=O)N[C@@H](Cc1ccc(O)cc1)C(=O)N[C@@H](CCCCN)C(=O)N[C@@H](Cc1ccc(O)cc1)C(N)=O)C(C)C [B8.14] (Ac-DV[hLeu]DGAAWDYKY-NH2) | > 5 µM | –
Ac-AWDYKY-NH2 [B2.19] | > 50 µM | –
Ac-LVIVGAAWDRKY-NH2 [B3.17] | > 50 µM | –
CC[C@H](C)[C@H](NC(=O)[C@@H](NC(=O)[C@H](CC(C)C)NC(C)=O)C(C)C)C(=O)N[C@H](C(=O)NCC(=O)N(C)[C@@H](C)C(=O)N[C@@H](C)C(=O)N[C@@H](Cc1c[nH]c2ccccc12)C(=O)N[C@@H](CC(=O)O)C(=O)N[C@@H](Cc1ccc(O)cc1)C(=O)N[C@@H](CCCCN)C(=O)N(C)[C@@H](Cc1ccc(O)cc1)C(N)=O)C(C)C [B3.10] (Ac-LVIVG[NMeA]AWDYK[NMeY]-NH2) | > 50 µM | –
Ac-DAAWDYKY-NH2 [B9.1] | > 5 µM | –
Ac-DVIVGAAWDYKYLQ-NH2 [B7.5] | > 5 µM | –
CC(=O)N[C@@H](CCC(C)C)C(=O)N[C@H](C(=O)N[C@@H](CCC(C)C)C(=O)N[C@H](C(=O)NCC(=O)N[C@@H](C)C(=O)N[C@@H](C)C(=O)N[C@@H](Cc1c[nH]c2ccccc12)C(=O)N[C@@H](CC(=O)O)C(=O)N[C@@H](CCCNC(=N)N)C(=O)N[C@@H](CCCCN)C(=O)N[C@@H](Cc1ccc(O)cc1)C(N)=O)C(C)C)C(C)C [B3.20] (Ac-[hLeu]V[hLeu]VGAAWDRKY-NH2) | > 5 µM | –
Ac-EAAWDYKY-NH2 [B9.7] | > 50 µM | –
Ac-DVIYGAAWDYKY-NH2 [B7.10] | > 5 µM | –
CC[C@H](C)[C@H](NC(=O)[C@@H](NC(=O)[C@@H](CC(=O)O)NC(C)=O)C(C)C)C(=O)N[C@@H](CC(=O)O)C(=O)NCC(=O)N[C@@H](C)C(=O)N[C@@H](C)C(=O)N[C@@H](Cc1c[nH]c2ccccc12)C(=O)N[C@@H](CC(=O)O)C(=O)N[C@@H](Cc1ccc(O)cc1)C(=O)N[C@@H](CCCCN)C(=O)N[C@@H](Cc1ccc(O)cc1)C(N)=O [B8.19] (Ac-[dD]VIDGAAWDYKY-NH2) | > 5 µM | –
Ac-GADYKRITVKVN-NH2 [PL-120, reference compound] | 35 µM | –
CCCC[C@H](NC(=O)[C@@H](NC(=O)[C@H](CC(=O)O)NC(C)=O)C(C)C)C(=O)N[C@H](C(=O)NCC(=O)N[C@@H](C)C(=O)N[C@@H](C)C(=O)N[C@@H](Cc1c[nH]c2ccccc12)C(=O)N[C@@H](CC(=O)O)C(=O)N[C@@H](Cc1ccc(O)cc1)C(=O)N[C@@H](CCCCN)C(=O)N[C@@H](Cc1ccc(O)cc1)C(N)=O)C(C)C [B5.8] (Ac-DV[Nle]VGAAWDYKY-NH2) | > 5 µM | –
DVIVGAAWDYKY [B5.14] | > 5 µM | –
Ac-DVIDGAAWDYK-NH2 [B8.24] | > 5 µM | –
CCCC[C@H](N)C(=O)N[C@H](C(=O)N[C@@H](Cc1c[nH]c2ccccc12)C(=O)N[C@H](C(=O)NCC(=O)N[C@@H](C)C(=O)N[C@@H](C)C(=O)N[C@@H](Cc1c[nH]c2ccccc12)C(=O)N[C@@H](CC(=O)O)C(=O)N[C@@H](Cc1ccc(O)cc1)C(=O)N[C@@H](CCCCN)C(=O)N[C@@H](Cc1ccc(O)cc1)C(=O)O)C(C)C)C(C)C [B4.15] (H-[Nle]VWVGAAWDYKY-OH; N-terminus and C-terminus assumed) | > 5 µM | –
Ac-DVIVGAAWDYKYLY-NH2 [B7.4] | > 5 µM | –
Ac-DVIDGAAWDYKR-NH2 [B8.23] | > 5 µM | –
Ac-EGAAWDYKY-NH2 [B9.6] | > 50 µM | –
Ac-WVWVGAAWDYKY-NH2 [B3.8] | > 50 µM | –
CC[C@H](C)[C@H](NC(=O)[C@@H](NC(=O)[C@H](CC(C)C)NC(C)=O)C(C)C)C(=O)N[C@H](C(=O)NCC(=O)N[C@@H](C)C(=O)N[C@@H](CCCN)C(=O)N[C@@H](Cc1c[nH]c2ccccc12)C(=O)N[C@@H](CC(=O)O)C(=O)N[C@@H](Cc1ccc(O)cc1)C(=O)N[C@@H](CCCCN)C(=O)N[C@@H](Cc1ccc(O)cc1)C(N)=O)C(C)C [B3.22] (Ac-LVIVGA[Orn]WDYKY-NH2) | > 5 µM | –
CC(=O)N[C@H](CC(=O)O)C(=O)N[C@@H](C)C(=O)N[C@@H](C)C(=O)N[C@@H](Cc1c[nH]c2ccccc12)C(=O)N[C@@H](CC(=O)O)C(=O)N[C@@H](Cc1ccc(O)cc1)C(=O)N[C@@H](CCCCN)C(=O)N[C@@H](Cc1ccc(O)cc1)C(N)=O [B9.9] (Ac-[dD]AAWDYKY-NH2) | > 5 µM | –
Ac-EVIDGAAWDYKY-NH2 [B8.17] | > 5 µM | –

More lines, in order of falling EC50, values ahead:

EC50 | IC50 | Compound
26 µM | – | Ac-LVIVGARWDYKR-NH2 [B3.7]
22 µM | – | Ac-YVLVIVGAAWDKKY-NH2 [B2.26]
20 µM | – | Ac-RVWVIVGAAWDYKY-NH2 [B2.12]
14 µM | – | LVIVGAAWDYKY [B3.11]
8.5 µM | – | Ac-LVIVGPAWDYKY-NH2 [B3.9]
6.8 µM | – | Ac-DVIDGAAWDYRY-NH2 [B8.7]
5.8 µM | – | Ac-DVIDGPAWDYKY-NH2 [B8.11]
4 µM | – | CCCC[C@H](NC(=O)[C@@H](NC(=O)[C@H](CC(C)C)NC(=O)[C@@H](NC(=O)[C@H](CCCNC(=N)N)NC(C)=O)C(C)C)C(C)C)C(=O)N[C@H](C(=O)NCC(=O)N[C@@H](C)C(=O)N[C@@H](C)C(=O)N[C@@H](Cc1c[nH]c2ccccc12)C(=O)N[C@@H](CC(=O)O)C(=O)N[C@@H](Cc1ccc(O)cc1)C(=O)N[C@@H](CCCCN)C(=O)N[C@@H](Cc1ccc(O)cc1)C(N)=O)C(C)C [B2.17] (Ac-RVLV[Nle]VGAAWDYKY-NH2)
2.2 µM | – | Ac-DVIEGAAWDYKY-NH2 [B8.1]
1 µM | – | CCCC[C@H](NC(C)=O)C(=O)N[C@H](C(=O)N[C@@H](CC(C)C)C(=O)N[C@H](C(=O)N[C@H](C(=O)N[C@H](C(=O)NCC(=O)N[C@@H](C)C(=O)N[C@@H](C)C(=O)N[C@@H](Cc1c[nH]c2ccccc12)C(=O)N[C@@H](CC(=O)O)C(=O)N[C@@H](CCCNC(=N)N)C(=O)N[C@@H](CCCCN)C(=O)N[C@@H](Cc1ccc(O)cc1)C(N)=O)C(C)C)[C@@H](C)CC)C(C)C)C(C)C [B2.16] (Ac-[Nle]VLVIVGAAWDRKY-NH2)
0.5 µM | 0.5 µM | CCCC[C@H](NC(=O)[C@@H](NC(=O)[C@H](CCCNC(=N)N)NC(C)=O)C(C)C)C(=O)N[C@H](C(=O)N[C@H](C(=O)N[C@H](C(=O)NCC(=O)N[C@@H](C)C(=O)N[C@@H](C)C(=O)N[C@@H](Cc1c[nH]c2ccccc12)C(=O)N[C@@H](CC(=O)O)C(=O)N[C@@H](Cc1ccc(O)cc1)C(=O)N[C@@H](CCCCN)C(=O)N[C@@H](Cc1ccc(O)cc1)C(N)=O)C(C)C)[C@@H](C)CC)C(C)C [B2.4] (Ac-RV[Nle]VIVGAAWDYKY-NH2)
0.2 µM | 0.2 µM | CCCC[C@H](NC(C)=O)C(=O)N[C@H](C(=O)N[C@@H](CC(C)C)C(=O)N[C@H](C(=O)N[C@H](C(=O)N[C@H](C(=O)NCC(=O)N[C@@H](C)C(=O)N[C@@H](C)C(=O)N[C@@H](Cc1c[nH]c2ccccc12)C(=O)N[C@@H](CC(=O)O)C(=O)N[C@@H](Cc1ccc(O)cc1)C(=O)N[C@@H](CCCCN)C(=O)N[C@@H](Cc1ccc(O)cc1)C(N)=O)C(C)C)[C@@H](C)CC)C(C)C)C(C)C [B5.6] (Ac-[Nle]VLVIVGAAWDYKY-NH2)
0.05 µM | 0.05 µM | Ac-DVIDGAAWDYKY-NH2 [B5.11]

Source: paper PMC11118832 (Biomolecules, 2024)
